Reference: ChEMBL document CHEMBL5120782, “Structure and Candidate Biosynthetic Gene Cluster of a Manumycin-Type Metabolite from Salinispora pacifica” (J Nat Prod, 2022)

Assays:
[1] = Antibacterial activity against Bacillus oceanisediminis CNY-977 assessed as reduction in microbial growth incubated for 18 hrs by CLSI based method; assay type: functional; conditions: Cytobacillus oceanisediminis
NCI-H460 = test: Cytotoxicity against human NCI-H460 cells assessed as reduction in cell viability incubated for 48 hrs by MTT assay; assay type: functional, cell-based; conditions: NCI-H460, 48 h

Structure (SMILES)	MIC [1] [µM]	EC50 (NCI-H460) [µM]
CC(C)=C[C@H](C)C[C@H](C)/C=C(\CO)C(=O)NC1=C[C@](O)(CCC(N)=O)[C@H]2O[C@H]2C1=O	50	
CCCC/C=C/C=C/C=C/C=N/NN=O		5.5
